Reference: US7304093B2, “Ketone compounds and compositions for cholesterol management and related uses” (Esperion Therapeutics, Inc., priority 2000, dated 2007)
Where two headings read alike, the source gives them in different places.

Assays:
primary rat hepatocytes = assay: Inhibition of lipid synthesis ([1-14C]-acetate incorporation) in primary cultures of rat hepatocytes; assay type: cell-based; conditions: Hepatocyte, 4 h incubation with [1-14C]-acetate
Experimental: Compounds were tested for inhibition of lipid synthesis in primary cultures of rat hepatocytes. Male Sprague-Dawley rats were anesthetized with intraperitoneal injection of sodium pentobarbital (80 mg/kg). Rat hepatocytes were isolated essentially as described by the method of Seglen (Seglen, P. O. Hepatocyte suspensions and cultures as tools in experimental carcinogenesis. J. Toxicol. Environ. Health 1979, 5, 551-560). Hepatocytes were suspended in Dulbecco's Modified Eagles Medium containing 25 mM D-glucose, 14 mM HEPES, 5 mM L-glutamine, 5 mM leucine, 5 mM alanine, 10 mM lactate, 1 mM pyruvate, 0.2% bovine serum albumin, 17.4 mM non-essential amino acids, 20% fetal bovine serum, […] and 20 μg/mL gentamycin) and plated at a density of 1.5×10^5 cells/cm^2 on collagen-coated 96-well plates. Four hours after plating, media was replaced with the same media without serum. Cells were grown overnight to allow formation of monolayer cultures. Lipid synthesis incubation conditions were initially assessed to ensure the linearity of [1-^14C]-acetate incorporation into hepatocyte lipids for up to 4 hours. Hepatocyte lipid synthesis inhibitory activity was assessed during incubations in the presence of 0.25 μCi [1-^14C]-acetate/well (final radiospecific activity in assay is 1 Ci/mol) and 0, 1, 3, 10, 30, 100 or 300 μM of compounds for 4 hours. At the end of the 4-hour incubation period, medium was discarded and cells were washed twice with ice-cold phosphate buffered saline and stored frozen prior to analysis. To determine total lipid synthesis, 170 μl of MicroScint-E® and 50 μl water was added to each well to extract and partition the lipid soluble products to the upper organic phase containing the scintillant. Lipid radioactivity was assessed by scintillation spectroscopy in a Packard TopCount NXT.

female obese Zucker rats = assay: Serum lipid and glycemic control variables in chow-fed obese female Zucker rats, daily oral gavage for two weeks; assay type: in vivo, rat; conditions: Rattus norvegicus, Table 9; for change in vivo at 100 mg/kg: 100 mg/kg daily oral; for change in vivo at 30 mg/kg: 30 mg/kg daily oral
Experimental: Ten- to twelve-week old (400-500 grams) female Zucker fatty rats Cr1: (Zuc)-faBR were obtained from Charles River Laboratories. Animals were acclimated to the laboratory environment for seven days. During the acclimation and study period, animals were housed by group in shoebox polycarbonate cages on Cellu-Dri bedding. The temperature and humidity in the animals' quarters (68-78° F.; 30-75% RH) were monitored and the airflow in the room was sufficient to provide several exchanges per hour with 100% fresh filtered air. An automatic timing device provided an alternating 12-hour cycle of light and dark. Rats received pelleted Purina Laboratory Rodent Chow® (5001) prior to and during the drug intervention period except for a 6-hour phase prior to blood sampling. Fresh water was supplied ad libitum via an automatic watering system. Compounds were dissolved, suspended by mixing in a dosing vehicle consisting of 1.5% carboxymethylcellulose/0.2% Tween 20 or 20% ethanol and 80% polyethylene glycol-200 [v/v]. Dose volume of vehicle or vehicle plus each compound was set at 0.25% of body weight in order to deliver the appropriate dose. Doses were administered daily by oral gavage, approximately between 8-10 AM. Regarding blood sampling, animals were fasted for 6 hours prior to all blood collections. Prior to and after 7 days of dosing, a 1.0- to 2.0-mL sample of blood was collected by administering O2/CO2 anesthesia and bleeding from the orbital venous plexus. Following 14 days of dosing, blood was collected by cardiac puncture after euthanasia with CO2. All blood samples were processed for separation of serum and stored at −80° C. until analysis. Commercially available kits were used to determine serum triglycerides (Roche Diagnostic Corporation, Kit No. 148899 or Boehringer Mannheim, Kit No. 1488872), total cholesterol (Roche Diagnostic Corporation, Kit No. 450061), non-esterified fatty acids (Wako Chemicals, Kit No. 994-75409) and β-hydroxybutyrate (Wako Chemicals, Kit No. 417-73501 or Sigma Kit. No. 310-0) on a Hitachi 912 Automatic Analyzer (Roche Diagnostic Corporation). In some instances, an in-house cholesterol reagent was used to determine total serum cholesterol levels. Serum lipoprotein cholesterol levels were determined by lipoprotein profile analysis. Lipoprotein profiles were analyzed using gel-filtration chromatography on a Superose 6HR (1×30 cm) column equipped with on-line detection of total cholesterol as described by Kieft et al (Kieft, K. A.; Bocan, T. M.; Krause, B. R. Rapid on-line determination of cholesterol distribution among plasma lipoproteins after high-performance gel filtration chromatography. J. Lipid Res. 1991, 32, 859-866.). The total cholesterol content of each lipoprotein was calculated by multiplying the independent values determined for serum total cholesterol by the percent area of each lipoprotein in the profile. The percent body weight gain and the ratio of liver to body weight is also determined. Selected data are shown as absolute values or as a percent change of the pretreatment values in Tables 8 and 9.
Select compounds (214c, 210c, and 210g) were further evalutated in the Zucker rat by performing a full dose response and measuring additional scrum variables including markers for diabetes (Tables 10-12).

[1] = Table 7, ranges: confidence of estimate insufficient to assign a value
[2] = 168 h, 1 wk, read-out: HDL-Cholesterol, Percent Change from Pre-Treatment
[3] = 168 h, 1 wk, read-out: NonHDL-Cholesterol, Percent Change from Pre-Treatment
[4] = 168 h, 1 wk, read-out: TG, Percent Change from Pre-Treatment
[5] = 336 h, 2 wk, read-out: HDL-Cholesterol, Percent Change from Pre-Treatment
[6] = 336 h, 2 wk, read-out: NonHDL-Cholesterol, Percent Change from Pre-Treatment
[7] = 336 h, 2 wk, read-out: TG, Percent Change from Pre-Treatment

| SMILES | IC50 (primary rat hepatocytes; [1]) [µM] | change in vivo at 100 mg/kg (female obese Zucker rats; [2]) [%] | change in vivo at 100 mg/kg (female obese Zucker rats; [3]) [%] | change in vivo at 100 mg/kg (female obese Zucker rats; [4]) [%] | change in vivo at 100 mg/kg (female obese Zucker rats; [5]) [%] | change in vivo at 100 mg/kg (female obese Zucker rats; [6]) [%] | change in vivo at 100 mg/kg (female obese Zucker rats; [7]) [%] | change in vivo at 30 mg/kg (female obese Zucker rats; [2]) [%] | change in vivo at 30 mg/kg (female obese Zucker rats; [3]) [%] | change in vivo at 30 mg/kg (female obese Zucker rats; [4]) [%] | change in vivo at 30 mg/kg (female obese Zucker rats; [5]) [%] | change in vivo at 30 mg/kg (female obese Zucker rats; [6]) [%] | change in vivo at 30 mg/kg (female obese Zucker rats; [7]) [%] | IC50 (primary rat hepatocytes; Table 6) [µM] |
| --- | --- | --- | --- | --- | --- | --- | --- | --- | --- | --- | --- | --- | --- | --- |
| CC(C)(CO)CCCCC(=O)CCCC(C)(C)CO [Compound 217, 1,12-Dihydroxy-2,2,11,11-tetramethyldodecan-6-one] | 3 to 10 | 46 | -26 | -40 | 48 | 4 | -11 |  |  |  |  |  |  |  |
| CC(C)Cc1ccc(C(C)(CCCCC(=O)CCCCC(C)(C(=O)O)c2ccc(CC(C)C)cc2)C(=O)O)cc1 (centres unmarked) [Compound 210f, 2,12-Bis-(4-isobutylphenyl)-2,12-dimethyl-7-oxotridecanedioic acid] | 100 to 300 | 11 | -40 | -63 | 62 | -44 | -66 |  |  |  |  |  |  |  |
| CC(C)(CO)Cc1cccc(C(=O)c2cccc(CC(C)(C)CO)c2)c1 [Compound 232, Bis[3-(3-hydroxy-2,2-dimethylpropyl)-phenyl]-methanone] | 52 | 1 | -15 | -29 | -11 | -5 | -8 |  |  |  |  |  |  |  |
| CC(C)(CO)CCCCCC(=O)CCCCC(C)(C)CO [Compound 219, 1,14-Dihydroxy-2,2,13,13-tetramethyltetradecan-7-one] | 2 | 78 | -70 | -85 | 78 | -78 | -87 |  |  |  |  |  |  |  |
| CC(C)(CCCCCCC(=O)CCCCCCC(C)(C)C(=O)O)C(=O)O [Compound 210i, 2,2,16,16-Tetramethyl-9-oxoheptadecanedioic acid] | 9 |  |  |  |  |  |  |  |  |  |  |  |  |  |
| Cc1ccc(C(C)(CO)CCCCC(=O)CCCCC(C)(CO)c2ccc(C)cc2)cc1 (centres unmarked) [Compound 214e, 1,13-Dihydroxy-2,12-dimethyl-2,12-di-p-tolyltridecan-7-one] | 100 to 300 |  |  |  |  |  |  |  |  |  |  |  |  |  |
| CC(C)Cc1ccc(C(C)(CO)CCCCC(=O)CCCCC(C)(CO)c2ccc(CC(C)C)cc2)cc1 (centres unmarked) [Compound 214f, 1,13-Dihydroxy-2,12-bis-(4-isobutylphenyl)-2,12-dimethyltridecan-7-one] |  | -5 | 28 | -11 | 6 | 34 | -15 |  |  |  |  |  |  |  |
| CC(C)(CO)CCCCCC(=O)CCCCCC(C)(C)CO [Compound 214g, 1,15-Dihydroxy-2,2,14,14-tetramethylpentadecan-8-one] | 3 | 76 | -91 | -92 | 135 | -88 | -92 |  |  |  |  |  |  |  |
| CC(CO)(CCCCCC(=O)CCCCCC(C)(CO)c1ccccc1)c1ccccc1 (centres unmarked) [Compound 214h, 1,15-Dihydroxy-2,14-dimethyl-2,14-diphenylpentadecan-8-one] | 93 | 2 | 29 | 24 | 10 | 9 | 1 |  |  |  |  |  |  |  |
| CC(C)(CO)CCCCCCC(=O)CCCCCCC(C)(C)CO [Compound 214i, 1,17-Dihydroxy-2,2,16,16-tetramethylheptadecan-9-one] | 2 |  |  |  |  |  |  | 85 | -50 | -58 | 61 | -32 | -33 |  |
| CCOC(=O)C(C)(C)CCCCCCCC(=O)CCCCCCCC(C)(C)C(=O)OCC [Compound 106n, Diethyl 10-oxo-2,2,18,18-tetramethyl-nonadecanedioate] |  |  |  |  |  |  |  |  |  |  |  |  |  | 13 |
| CC(C)(CO)CCCCC(=O)CCCCC(C)(CO)c1ccccc1 (centres unmarked) [Compound 218, 1,13-Dihydroxy-2,2,12-trimethyl-12-phenyltridecan-7-one] | 1 |  |  |  |  |  |  | -18 | 17 | 18 | -5 | -8 | -7 |  |
| CC(CO)(CCCC(=O)CCCC(C)(CO)c1ccccc1)c1ccccc1 (centres unmarked) [Compound 214b, 1,11-Dihydroxy-2,10-dimethyl-2,10-diphenylundecan-6-one] | 100 to 300 | -14 | -18 | -20 | -11 | -32 | -17 |  |  |  |  |  |  |  |
| CC(C)(C)OC(=O)C1(CCCCC(=O)CCCCC2(C(=O)OC(C)(C)C)CC2)CC1 [Compound 106d, t-Butyl 1-[9-[1-(tert-butoxycarbonyl)cyclopropyl]-5-oxononyl]-1-cyclopropanecarboxylate] |  |  |  |  |  |  |  |  |  |  |  |  |  | 35 |
| CC(CCCCC(=O)CCCCC(C)(C(=O)O)c1ccccc1)(C(=O)O)c1ccccc1 (centres unmarked) [Compound 210d, 2,12-Dimethyl-7-oxo-2,12-diphenyltridecanedioic acid] |  | 43 | 36 | -36 | 45 | 79 | -8 |  |  |  |  |  |  |  |
| CC(C)(CO)CCCC(=O)CCCC(C)(C)CO [Compound 214a, 1,11-Dihydroxy-2,2,10,10-tetramethylundecan-6-one] | 27 | 24 | -23 | -31 | 2 | 28 | 0 |  |  |  |  |  |  |  |
